Source: publication PMC5566973 (Frontiers in Pharmacology, 2017)

How the values were obtained:
in vitro = experiment: in vitro
Experimental: (§1) Caco-2, MDCK and MDCK-MRP2 cells were donated by Prof. Yan Xie and Yueming Ma from Shanghai University of Traditional Chinese Medicine. The cells were grown in culture dishes (Corning® Costar, Cambridge, MA, USA) using DMEM supplemented with 10% FBS, 1% NEAA and 1% penicillin-streptomycin solution. The cells were cultured in 5% CO2 and […] with 90% relative humidity at 37°C. The medium was replaced every other day during incubation. The cells were passaged every 3–4 days between 70 and 80% confluence at a 1:5 split ratio using 0.25% trypsin-EDTA. For the transport experiments, the cells from passages between 30 and 45 were seeded at 1 × 10^5 cells/cm^2 onto permeable polycarbonate inserts (0.45 μm pore size, seeding surface of 0.6 cm^2, Millipore, MA, USA) in 24-well plastic plates. The media in the culture plates were changed every other day for the first week after seeding and were replaced daily afterward. […] The cells were used for the transport experiments 21–28 (Caco-2) or 5–7 (MDCK and MDCK-MRP2) days after seeding, and only monolayers with a TEER-value above 420 Ω cm^2 were used during the studies.
(§2) The apical (AP) and basolateral (BL) sides are typical of polarized Caco-2, MDCK and MDCK-MRP2 epithelial cells. Before the experiments, the polarized cell monolayers were washed twice with warm HBSS solution and subsequently preincubated (37°C, 30 min). Afterward, HBSS solution on both sides of the cell monolayers was removed using a mini desktop vacuum pump. […] The final DMSO concentration in the HBSS or drug mixture was below 0.5%. The monolayers were incubated at 37°C, and 100 μL samples were taken at 30, 60, 90, and 120 min from the acceptor compartment and immediately replaced with the same volume of prewarmed fresh blank HBSS. TEER measurements for assessing the membrane integrity took place before and after the experiments.
(§3) The apparent permeability coefficients (Papp) and ER were calculated as Equations (2) and (3): […]
(§4) where dQ/dt is the steady-state flux, A is the membrane surface area, and C0 is the initial drug concentration in the donor compartment. PappBA is the Papp-value measured in BL to AP direction and PappAB is the Papp-value measured in AP to BL direction. It indicated the involvement of an active transport process when the ER-value is above 1.5 (Hubatsch et al., [2007]).

OATPs = experiment: in vitro; details: human, Caco-2, ER, Caco-2, 2 μM, + ES 0.05 mM (OATPs)
Experimental: as §1, §2, §3, §4

OATs = experiment: in vitro; details: human, Caco-2, ER, Caco-2, 2 μM, + Cimetidine 0.05 mM (OATs)
Experimental: as §1, §2, §3, §4

BCRP = experiment: in vitro; details: human, Caco-2, ER, Caco-2, 2 μM
Experimental: as §1, §2, §3, §4

MRP2 = experiment: in vitro; details: human, Caco-2, ER, Caco-2, 2 μM
Experimental: as §1, §2, §3, §4

[1] = tested on: ATP (adenosine triphosphate); experiment: in vitro; details: human, Caco-2, ER, Caco-2, 2 μM, + NaN3 10 mM (ATP)
Experimental: as §1, §2, §3, §4

MDCK cell monolayers = experiment: in vitro; details: 2 μM
Experimental: as §1, §2, §3, §4

PEPT1 = experiment: in vitro; details: human, Caco-2, ER, Caco-2, 2 μM, + Gly-Sar 10 mM (PEPT1)
Experimental: as §1, §2, §3, §4

Caco-2 cell monolayers = experiment: in vitro; details: Caco-2, 2 μM
Experimental: as §1, §2, §3, §4

[2] = Control (pH 7.4, 37°C, without EDTA)
[3] = with EDTA 5 mM, listed as harmaline

Q: What does the source list for `COc1ccc2c3c([nH]c2c1)C(C)=NCC3` [Harmaline]?
A: efflux ratio (in vitro; dog, MDCK, ER, 2 μM, 4°C): 1.23; efflux ratio (in vitro; dog, MDCK, ER, 2 μM, with EDTA 5 mM): 0.9; efflux ratio (in vitro; dog, MDCK, ER, initial concentration 1 μM): 1.23; efflux ratio (in vitro; dog, MDCK, ER, initial concentration 2 μM): 1.03; efflux ratio (in vitro; dog, MDCK, ER, initial concentration 5 μM): 1.16; Papp A→B (in vitro; dog, MDCK, PappAB, initial concentration 1 μM): 15.8 ± 1.76 ×10⁻⁶ cm/s; Papp A→B (in vitro; dog, MDCK, PappAB, initial concentration 2 μM): 20.4 ± 1.82 ×10⁻⁶ cm/s; Papp A→B (in vitro; dog, MDCK, PappAB, initial concentration 5 μM): 21.2 ± 1.32 ×10⁻⁶ cm/s; Papp B→A (in vitro; dog, MDCK, PappBA, initial concentration 1 μM): 19.5 ± 2.25 ×10⁻⁶ cm/s; Papp B→A (in vitro; dog, MDCK, PappBA, initial concentration 2 μM): 21 ± 2.11 ×10⁻⁶ cm/s; Papp B→A (in vitro; dog, MDCK, PappBA, initial concentration 5 μM): 24.5 ± 2.54 ×10⁻⁶ cm/s; efflux ratio (in vitro; dog, MDCK, pH 5.5, ER, 2 μM, pH 5.5): 1.18; Papp A→B (in vitro; dog, MDCK, pH 5.5, PappAB, 2 μM, pH 5.5): 13 ± 2.54 ×10⁻⁶ cm/s; Papp B→A (in vitro; dog, MDCK, pH 5.5, PappBA, 2 μM, pH 5.5): 15.4 ± 0.91 ×10⁻⁶ cm/s; efflux ratio (in vitro; dog, MDCK, pH 7.4, ER, 2 μM, Control (pH 7.4, 37°C, without EDTA)): 1.03; efflux ratio (in vitro; human, Caco-2, ER, Caco-2, 2 μM, 4°C): 1.15; efflux ratio (in vitro; human, Caco-2, ER, Caco-2, 2 μM, Control (no inhibitor or substrate)): 0.95; efflux ratio (in vitro; human, Caco-2, ER, Caco-2, 2 μM, with EDTA 5 mM): 1.12; efflux ratio (in vitro; human, Caco-2, ER, Caco-2, initial concentration 1 μM): 0.93; efflux ratio (in vitro; human, Caco-2, ER, Caco-2, initial concentration 2 μM): 0.95; efflux ratio (in vitro; human, Caco-2, ER, Caco-2, initial concentration 5 μM): 1.03; Papp A→B (in vitro; human, Caco-2, PappAB, Caco-2, initial concentration 1 μM): 27.4 ± 1.44 ×10⁻⁶ cm/s; Papp A→B (in vitro; human, Caco-2, PappAB, Caco-2, initial concentration 5 μM): 30.1 ± 3.01 ×10⁻⁶ cm/s; Papp B→A (in vitro; human, Caco-2, PappBA, Caco-2, 2 μM, 4°C): 8.71 ± 1.83 ×10⁻⁶ cm/s; Papp B→A (in vitro; human, Caco-2, PappBA, Caco-2, initial concentration 1 μM): 25.6 ± 1.95 ×10⁻⁶ cm/s; Papp B→A (in vitro; human, Caco-2, PappBA, Caco-2, initial concentration 2 μM): 26.4 ± 0.49 ×10⁻⁶ cm/s; Papp B→A (in vitro; human, Caco-2, PappBA, Caco-2, initial concentration 5 μM): 31 ± 1.4 ×10⁻⁶ cm/s; efflux ratio (in vitro; human, Caco-2, pH 5.5, ER, Caco-2, 2 μM, pH 5.5): 0.88; Papp A→B (in vitro; human, Caco-2, pH 5.5, PappAB, Caco-2, 2 μM, pH 5.5): 7.6 ± 0.74 ×10⁻⁶ cm/s; Papp B→A (in vitro; human, Caco-2, pH 5.5, PappBA, Caco-2, 2 μM, pH 5.5): 6.72 ± 0.76 ×10⁻⁶ cm/s; efflux ratio (in vitro; human, Caco-2, pH 7.4, ER, Caco-2, 2 μM, Control (pH 7.4, 37°C, without EDTA)): 0.95; efflux ratio (OATPs): 1.12; efflux ratio (OATs): 0.97; efflux ratio (BCRP; + Apigenin 0.025 mM (BCRP)): 0.94; efflux ratio (BCRP; + Ko143 0.01 mM (BCRP)): 0.93; efflux ratio (MRP2; + MK571 0.05 mM (MRP2)): 0.93; efflux ratio (MRP2; + Probenecid 0.2 mM (MRP2)): 0.96; efflux ratio [1]: 1.15; PappAB at 37°C relative to 4°C (MDCK cell monolayers): 3.77 folds; PappAB at pH 7.4 relative to pH 5.5 (MDCK cell monolayers): 1.56 folds; PappAB (MDCK cell monolayers; 4°C): 5.40 ± 0.99^*** 1 × 10^−6 cm/s; PappBA (MDCK cell monolayers; 4°C): 6.65 ± 0.64^*** 1 × 10^−6 cm/s; PappAB (MDCK cell monolayers; [2]): 20.36 ± 1.82 1 × 10^−6 cm/s; PappBA (MDCK cell monolayers; [2]): 21.03 ± 2.11 1 × 10^−6 cm/s; PappAB (MDCK cell monolayers; with EDTA 5 mM): 29.43 ± 1.45^* 1 × 10^−6 cm/s; PappBA (MDCK cell monolayers; with EDTA 5 mM): 26.34 ± 0.93^* 1 × 10^−6 cm/s; PappAB (MDCK cell monolayers; [3]): 29.43 ± 1.45 1 × 10^−6 cm/s; PappBA (MDCK cell monolayers; [3]): 26.34 ± 0.93 1 × 10^−6 cm/s; efflux ratio (PEPT1): 0.95; PappAB at pH 7.4 relative to pH 5.5 (Caco-2 cell monolayers): 3.65 folds
